“Also recorded” adds a separate entry of the source. Read-outs that look alike come from different tables or passages of the source.
Key:
[1] = test system: conditions associated with thalamocortical dysrhythmia; test: TLVES/Ketamine combination treatment of patients (Example 2); conditions: all three patients; tACS or tRNS 20 minutes; ketamine total dose 0.5-5.0 mg per kg infused over 15-50 minutes
depression = conditions: ketamine alone, cited from earlier work
[2] = test system: obsessive-compulsive disorder (OCD); conditions: OCD patients infused with ketamine; compared with depression and CRPS; Pittenger et al. 2012; cited from earlier work
[3] = test system: conditions associated with thalamocortical dysrhythmia; test: TMS/Ketamine combination treatment of patients (Example 1)
Procedure: Thirty-five patients were treated with a combination of ketamine and TMS. […] For simplicity of presentation in Table 2, patients receiving treatment more than once a week are shown as receiving a single treatment for that week. Also, intervals are rounded to the nearest week.
Others received a priming TMS treatment prior to the combination treatment. Some patients received neither pretreatment nor priming, although most patients received one or the other. Since the priming treatment is less rigorous than several days of pretreatment, all patients receiving pretreatment were ultimately switched to priming or neither. Pretreatment and or priming treatment were administered based upon diagnosis and patient compliance.

[4] = patient B3, Unipolar Depression & ADD, ketamine combined with TMS
[5] = patient B6, Bipolar Depression, ketamine combined with TMS
[6] = patient B23, Fibromyalgia, PTSD, mixed connective tissue disease, ketamine combined with TMS
[7] = patient B26, Bipolar Disorder, poly-substance abuse, ketamine combined with TMS
[8] = patient C11, Tourette's and secondary depression, ketamine combined with TMS
[9] = patient D8, OCD & secondary depression, ketamine combined with TMS
[10] = patient D20, Depression & frontal lobe disorder, ketamine combined with TMS
[11] = patient H2, Bipolar Depression, ketamine combined with TMS
[12] = patient K10, CRPS & regulatory disorder of childhood, ketamine combined with TMS
[13] = patient N7, Multiple head injuries and depression, ketamine combined with TMS
[14] = patient N13, Bipolar Disorder & chronic neck and back pain, ketamine combined with TMS
[15] = patient N14, Unipolar Depression, ADD, alcohol abuse, concussion, ketamine combined with TMS
[16] = patient N30, Depression, fibromyalgia, back pain, ketamine combined with TMS
[17] = patient O34, ADHD, concussion, back pain, substance abuse, ketamine combined with TMS
[18] = patient Q9, Bipolar Depression, ketamine combined with TMS
[19] = patient R17, Childhood depression, PTSD, poly-substance abuse, ketamine combined with TMS
[20] = patient R32, OCD & secondary depression, poly-substance abuse, ketamine combined with TMS
[21] = patient S1, Generalized anxiety & secondary depression, ketamine combined with TMS
[22] = patient S36, Depression, panic attacks, ketamine combined with TMS
[23] = patient T15, Bipolar Depression, ketamine combined with TMS
[24] = patient T29, Bipolar Disorder, dormant poly-substance abuse, ketamine combined with TMS
[25] = patient W24, Depression, ketamine combined with TMS
[26] = patient Z4, Unipolar Depression & ADD, ketamine combined with TMS
[27] = patient Z27, Childhood onset bipolar disorder, ADD, RSD, ketamine combined with TMS
[28] = patient, Bipolar Disorder, poly-substance abuse, ketamine combined with TMS
[29] = patient, Depression & poly-substance abuse, ketamine combined with TMS
[30] = patient, Unipolar Depression & minor epilepsy, ketamine combined with TMS
[31] = patients having positive outcomes, ketamine combined with TMS

CNC1(c2ccccc2Cl)CCCCC1=O (racemic) [ketamine, (RS)-2-(2-Chlorophenyl)-2-(methylamino)cyclohexanone]
Post-treatment fatigue compared with TMS/ketamine [1]: less of the post-treatment fatigue
Therapeutic benefit compared with TMS/ketamine [1]: same therapeutic benefits as TMS/ketamine
Lasting relief from suicidality or depression (depression): highly transitory
Success rate in the treatment of depression (depression; dosages reportedly 5-15 times higher than with TMS): 60-70%
Lasting relief from suicidality or depression (depression; listed as Ketamine): does not, however, appear to provide lasting relief from suicidality or depression
Effectiveness in treating depression (depression; patients with bipolar disorder who have not responded to anti-depressants): effective
Time to rapid antidepressant effect (depression; persons with major depressive disorder (and bipolar depression)): two
Benefit in OCD patients [2]: rather more limited
Outcome of the patients that completed treatment ([3]; all of the 28 patients that completed treatment, of thirty-five treated, ketamine combined with TMS): positive outcome
Outcome [3, 4]: entered graduate school, got out of abusive relationship
Overall Response [3, 4]: excellent
Outcome [3, 5]: entered graduate school, began to date for first time
Overall Response [3, 5]: excellent
Outcome [3, 6]: off pain medicine, calm, more active
Outcome: adverse effect [3, 6]: experienced severe nausea
Overall Response [3, 6]: excellent
Outcome [3, 7]: returned to college, got married
Overall Response [3, 7]: excellent
Outcome [3, 8]: off of inappropriate medicines, calm, in school
Overall Response [3, 8]: good
Outcome [3, 9]: back to work and active family life
Overall Response [3, 9]: good
Outcome [3, 10]: depression lifted, apathy lifted, pace of thought improved
Overall Response [3, 10]: excellent
Outcome [3, 11]: returned to home-life and active mothering
Overall Response [3, 11]: good
Outcome [3, 12]: off of opioid narcotics, entered trade school, saved subject's life
Overall Response [3, 12]: excellent
Outcome [3, 13]: off of all opioid narcotics, back to church life
Overall Response [3, 13]: excellent
Outcome [3, 14]: off of all opioid narcotics, calm, walking well
Overall Response [3, 14]: very good
Outcome [3, 15]: calm, repaired broken business & family life, sober
Overall Response [3, 15]: very good
Outcome [3, 16]: off opioid narcotics, not depressed, traveling
Overall Response [3, 16]: excellent
Outcome [3, 17]: did very well, significant other coaxed subject back to substance; also recorded: abuse
Overall Response [3, 17]: excellent
Outcome [3, 18]: back to work, repaired broken marriage
Overall Response [3, 18]: excellent
Outcome [3, 19]: learned to read, entered college, sober
Overall Response [3, 19]: excellent
Outcome [3, 20]: sober, calm, back to college
Overall Response [3, 20]: excellent
Outcome [3, 21]: returned to college, sober
Overall Response [3, 21]: excellent
Outcome [3, 22]: did very well, repaired broken marriage and family
Overall Response [3, 22]: excellent
Outcome [3, 23]: back to church life and active family life
Overall Response [3, 23]: excellent
Outcome [3, 24]: entered graduate school, running family business, still sober
Overall Response [3, 24]: excellent
Outcome [3, 25]: back to work and active family life
Overall Response [3, 25]: excellent
Outcome [3, 26]: no longer bedridden, left bad marriage
Overall Response [3, 26]: very good
Outcome [3, 27]: sober, calm, entered college and at work part-time
Overall Response [3, 27]: very good
Outcome [3, 28]: calm, still in early stage of treatment
Overall Response [3, 28]: very good
Outcome [3, 29]: sober, active with family business
Overall Response [3, 29]: excellent
Outcome [3, 30]: relapsed
Overall Response [3, 30]: good
Adverse side effects [3, 31]: reduced adverse side effects
Durability of the positive result [3, 31]: more robust, i.e., long lasting, positive result; also recorded: lasting result
Percentage of patients with positive outcome compared with success rate reported for TMS alone or ketamine alone ([3]; patients that completed treatment, ketamine combined with TMS): higher
Response to previous TMS/ketamine treatment ([3]; three more frail, less robust patients later given TLVES/ketamine): significantly improved

Reference: patent US10716950B2, “Treatment of thalamocortical dysrhythmia” (priority 2012, dated 2020)
